Several values for one entry are separate records, joined by “and”; a condition that tells them apart may be missing. Identical values can stand only once.
What was measured:
sciatic nerve = assay: Local anaesthetic effect in rats after perineuronal injection close to the sciatic nerve; format: in vivo; conditions: for Duration of anaesthesia, Motoric Blockage / Duration of anaesthesia, Sensory Blockage: 1.0% + adr. 5 μg/ml, 10 animals, perineuronal, sciatic nerve
rabbits = conditions: rabbit, in vivo
in vivo [1] = conditions: mouse
[2] = tested on: arrhythmic heart-beats induced by ouabain; assay: Effect against arrhythmic heart-beats induced by ouabain in anaesthetized dogs; format: in vivo; conditions: for Duration of regularization / Number of regularized arrhythmias (percent) / Number of regularized arrhythmias: ouabain; for Number of regularized arrhythmias: count
guinea pigs = assay: Local anaesthetic effect in guinea pigs after intracutaneous infiltration; format: in vivo; conditions: for Duration of Anaesthesia: 1.0% + adrenaline 5 μg/ml, 12 animals
in vivo [3] = conditions: rat, iv

| Structure (SMILES) | Duration of anaesthesia, Motoric Blockage (sciatic nerve) [min] | Duration of anaesthesia, Sensory Blockage (sciatic nerve) [min] | local anaesthetic effect, in words (sciatic nerve; perineuronal injection close to the sciatic nerve) | tissue irritation, in words (rabbits) | LD50 (in vivo [1]) [mg/kg] | effect against arrhythmic heart-beats induced by ouabain, in words [2] | Duration of regularization ([2]; dose 1.0 mg/kg) [min] | Number of regularized arrhythmias (percent) ([2]; dose 1.0 mg/kg) [%] | Number of regularized arrhythmias ([2]; dose 1.0 mg/kg) | Duration of regularization ([2]; dose 2.0 mg/kg) [min] | Number of regularized arrhythmias (percent) ([2]; dose 2.0 mg/kg) | Number of regularized arrhythmias ([2]; dose 2.0 mg/kg) | local anaesthetic effect, in words (guinea pigs) | Duration of Anaesthesia (guinea pigs) [min] | TD50 (in vivo [3]) [mg/kg] | LD50 (in vivo [1]; iv) [mg/kg] |
| --- | --- | --- | --- | --- | --- | --- | --- | --- | --- | --- | --- | --- | --- | --- | --- | --- |
| Cc1cccc(C)c1NC(=O)C1CCCCN1CCO (racemic) [Substance S-1249, DL-N-(2-hydroxyethyl)pipecolinyl-2,6-dimethylanilide] | 83 ± 6 | 82 ± 6 | equivalent local anaesthetic effect to lidocaine and mepivacaine | considerably less tissue irritation | 57 | effects equivalent to lidocaine and better than mepivacaine | 130 ± 40 | 65 | 13 | 280 ± 70 | 70% | 17 | local anaesthetic effect of the same order of magnitude as lidocaine and mepivacaine | 140 ± 8 | 103 ± 8 | – |
| Cc1cccc(C)c1NC(=O)C1CCCC[N+]1(C)CCO (centres unmarked) [N-methyl-S-1249, N(quaternary-2-hydroxyethyl-N-methyl)pipecolinyl-2,6-dimethylanilide] | – | – | – | – | – | rhythm-regularizing effects | 180 ± 30 | 100 | 4 | 310 ± 50 | 100% | 4 | local anaesthetic effect | 128 ± 12 | 125 | 84 |
| Cc1cccc(C)c1NC(=O)C1CCCCN1C (centres unmarked) [Mepivacaine, mepivacaine, reference compound] | 89 ± 4 | 87 ± 4 | – | – | 31 | – | 110 ± 20 | 50 | 5 | 185 ± 50 | 50% and 60% | 6 | – | 152 ± 16 | 38 ± 3 | 31 |
| Cc1cccc(C)c1NC(=O)[C@@H]1CCCN1CCO [Substance S-1258, L-N-(2-hydroxyethyl)prolyl-2,6-dimethylanilide] | – | – | – | – | – | effective against arrhythmic heartbeats induced by ouabain | 95 ± 20 | 83 | 5 | 195 ± 40 | 67% | 4 | better local anaesthetic effect than lidocaine | 111 ± 8 | 130 ± 10 | 110 |
| Cc1cccc(C)c1NC(=O)C1CCCCN1CCCO (centres unmarked) [Substance S-1265, N-(3-Hydroxypropyl)pipecolinyl-2,6-dimethylanilide] | – | – | – | – | – | effects equivalent to lidocaine and mepivacaine | 120 ± 30 | 67 | 4 | 200 ± 40 | 83% | 5 | better local anaesthetic effect than lidocaine | 151 ± 6 | 80 ± 4 | 40 |
| CCN(CC)CC(=O)Nc1c(C)cccc1C [Lidocaine, lidocaine, reference compound] | 79 ± 5 | 77 ± 5 | – | – | – | – | – | 60 | 12 | 220 ± 30 | 79% | 19 | – | 132 ± 7 | – | – |

Source: patent US4302465A, “Therapeutically active, substituted piperidines and pyrrolidines therapeutic compositions thereof and methods of use thereof” (priority 1979, dated 1981)
